For experiment [1], the system named is HCV GT1a replicon. Nature of the experiment: HCV replicon assay (Huh-7 cells stably transfected with HCV GT1a replicon; luciferase or NEO gene qPCR readout). The class given is cell-based. Particulars: Hepatitis C virus, HCV 1a genotype replicon, 72 hours. The protocol: (§1) HCV Replicon System was utilized as a screening model in the present disclosure to evaluate the antivirus effects of the compounds disclosed herein against HCV. HCV Replicon assay was first described in Science, 1999, 285 (5424), 110-3. […] To determine the potential anti-HCV effects of the test compounds, luciferase assay and antibiotic Neomycin resistance gene were tested according to the method described in Science. 1999 Jul. 2; 285 (5424), 110-3 and J. Virol. 2003 March; 77 (5), 3007-19.
(§2) In a word, the compounds disclosed herein were tested by using human hepatic carcinoma cell line Huh-7 which is transfected stably with HCV GT1a, GT1b or GT2a replicon respectively, and resistant cells of Y93H, L31F, P32L or I302V and wild-type cells HCV 1b. HCV Replicon System disclosed herein contains G418 resistance gene NEO and Luciferase Reporter Gene, and the level of HCV replication in host cells is detected and characterized by the expression level of the NEO gene or Luciferase Reporter Gene, so the effects of the compounds herein inhibit HCV replication can be evaluated in this system. In this article, a real-time quantitative polymerase chain reaction (qPCR) method was used to detect NEO gene expression level, and chemiluminescence method was used to test Luciferase Reporter Gene expression level.
(§3) 1. Test Method for Measuring EC50 of the Compounds Based on Luciferase Assay.
(§4) The Huh-7 cells transfected with HCV replicons system were seeded into 96-well plates (8,000 cells in 125 μL/well) respectively; each test compound was diluted to desired concentration using 5-fold serial dilutions protocol, 10 doses in duplicate, and added to wells with POD™ 810 Plate Assembler. The plates were incubated in a CO2 incubator for 72 hours; after that, 40 μL of Luciferase assay substrate (Promega Bright-Glo) was added to each well, and detected by a chemiluminescence detection system (Topcount Microplate Scintillation and Luminescence Counter) 5 minutes later; the EC50 (half-maximal effective concentration, concentration for 50% of maximal effect) values of test compounds were analyzed by GraphPad Prism software. In this paper, experiments were repeated twice and set the wells without compounds as negative control.
(§5) 2. Test Method for Measuring EC50 of the Compounds by Detecting Antibiotic G418 Resistance Gene NEO Gene.
(§6) The Huh-7 cells transfected with HCV replicons system were seeded into 96-well plates (8,000 cells in 125 μL/well) respectively; each test compound was diluted to desired concentration using 5-fold serial dilutions protocol, 10 doses in duplicate, and added to each well with POD™ 810 Plate Assembler; the cells were incubated in a CO2 incubator for 72 hours; and detected the expression level of the NEO gene expression with real-time quantitative PCR later; the EC50 (half-maximal effective concentration, concentration for 50% of maximal effect) values of test compounds were analyzed by GraphPad Prism software, respectively. In this paper, experiments were repeated twice and set the wells without compounds as negative control.
A general note: In antiviral work, replicon cells carry a viral genome segment that copies itself.

For experiment [2], the system named is HCV GT1b replicon. The experiment is described as follows: HCV replicon assay (Huh-7 cells stably transfected with HCV GT1b replicon; luciferase or NEO gene qPCR readout). Particulars: Hepatitis C virus, HCV 1b genotype replicon, 72 hours. The class given is cell-based. How it is done: as §1, §2, §3, §4, §5, §6

SMILES strings stand for the structures. pEC50: −log10 of the molar value.

The pEC50 is the EC50 on a negative log10 scale, so that one unit is a factor of ten. Lower therefore signals a large EC50. For the molecule `COC(=O)N[C@H](C(=O)N1CCC[C@H]1c1ncc(-c2ccc(-c3ccc(-c4cnc([C@@H]5CCCN5C(=O)[C@@H](NC(=O)OC)C(C)C)[nH]4)c4c3C3CC(=O)CC3C4)cc2)[nH]1)C(C)C` (stereo partly shown) [Example 34], the negative-log EC50 (pEC50) in experiment [1] was 10.12; in experiment [2], 10.66.

For `COC(=O)N[C@H](C(=O)N1[C@@H]2CC[C@@H](C2)[C@H]1c1ncc(-c2ccc(-c3ccc(-c4ccc5nc([C@@H]6[C@H]7CC[C@H](C7)N6C(=O)[C@@H](NC(=O)OC)C(C)C)[nH]c5c4)c4c3C3CCC3C4)cc2)[nH]1)C(C)C` (stereo partly shown) [Example 19], the pEC50 was 9.66 in experiment [1] and 10.36 in experiment [2].

`COC(=O)N[C@@H](C)C(=O)N1CCCC1C1=Nc2cc(-c3ccc(-c4cnc([C@@H]5CCCN5C(=O)[C@H](C)NC(=O)OC)[nH]4)c4c3CC3CCC43)ccc2C2(COC2)N1` (stereo partly shown) [Example 5]: the pEC50 was 8.98 in experiment [1] and 9.92 in experiment [2].

`COC(=O)N[C@H](C(=O)N1C2CC2C[C@H]1c1ncc(-c2ccc(-c3ccc(-c4ccc5nc([C@@H]6CC7CC7N6C(=O)[C@@H](NC(=O)OC)C(C)C)[nH]c5c4)c4c3C3CCC3C4)cc2)[nH]1)C(C)C` (stereo partly shown) [Example 18]: the pEC50 in experiment [1] was 10.08; in experiment [2] it was 10.52.

Consider `COC(=O)N[C@H](C(=O)N1CCC[C@H]1c1ncc(-c2ccc(-c3ccc(-c4ccc5nc([C@@H]6CCCN6C(=O)[C@@H](NC(=O)OC)C(C)C)[nH]c5c4)c4c3CC3CCC43)c3cnoc23)[nH]1)C(C)C` (stereo partly shown) [Example 24], for which the pEC50 in experiment [1] is 9.68; in experiment [2] it was 9.93.

Turning to `COC(=O)NC(C(=O)N1CCCC1c1nc2ccc(-c3ccc(-c4ccc(-c5cnc(C6CC7CC7N6C(=O)C(NC(=O)OC)C(C)C)[nH]5)cc4)c4c3CC3CCC43)cc2[nH]1)C(C)C` (stereo not shown) [Example 37], the results for the pEC50 in experiment [1] and in experiment [2] were 10.20 and 10.80, respectively.

On to `COC(=O)N[C@H](C(=O)N1CCC[C@H]1c1ncc(-c2ccc(-c3ccc(-c4ccc5nc([C@@H]6CCCN6C(=O)[C@@H](NC(=O)OC)C(C)C)[nH]c5c4)c4c3C3CCC3C4)c3ccccc23)[nH]1)C(C)C` (stereo partly shown) [Example 23], for which the pEC50 was 9.35 in experiment [1] and 10.30 in experiment [2].

Turning to `COC(=O)NC(C(=O)N1CCCC1c1ncc(-c2ccc(-c3ccc(-c4ccc5nc(C6CCCN6C(=O)C(NC(=O)OC)C(C)C)[nH]c5c4)c4c3C3CCC3C4)cc2)[nH]1)C(C)C` (stereo not shown) [Example 38], the pEC50 in experiment [1] was 10.24; in experiment [2] it was 10.89.

Turning to `COC(=O)N[C@H](C(=O)N1CCC[C@H]1C(=O)Nc1ccc(-c2ccc(-c3ccc4nc([C@@H]5CCCN5C(=O)[C@@H](NC(=O)OC)C(C)C)[nH]c4c3)c3c2CC2CCC32)cc1)C(C)C` (stereo partly shown) [Example 27], the pEC50 is 8.79 in experiment [1] and 9.17 in experiment [2].

For the molecule `COC(=O)N[C@H](C(=O)N1CCC[C@H]1c1ncc(-c2ccc(-c3sc(-c4ccc5nc([C@@H]6CCCN6C(=O)[C@@H](NC(=O)OC)C(C)C)[nH]c5c4)c4c3C3CCC3C4)cc2)[nH]1)C(C)C` (stereo partly shown) [Example 26], the pEC50 was 9.08 in experiment [1] and 10.32 in experiment [2].

Consider `COC(=O)N[C@H](C(=O)N1CC(C)(C)C[C@H]1c1ncc(-c2ccc(-c3ccc(-c4ccc5nc([C@@H]6CC(C)(C)CN6C(=O)[C@@H](NC(=O)OC)C(C)C)[nH]c5c4)c4c3C3CCC3C4)cc2)[nH]1)C(C)C` (stereo partly shown) [Example 15], for which the pEC50 in experiment [1] was 9.42; in experiment [2], 9.98.

Consider `COC(=O)NC(C(=O)N1CCCC1c1ncc(-c2ccc(-c3ccc(-c4cnc(C5CCCN5C(=O)C(NC(=O)OC)C(C)C)[nH]4)c4c3C3CCC3C4)cc2)[nH]1)C(C)C` (stereo not shown) [Example 35], for which the pEC50 in experiment [1] is 9.26; in experiment [2] it was 11.15.

As to `CC(C)[C@H](NC(=O)OC(C)(C)C)C(=O)N1CCC[C@H]1c1ncc(-c2ccc(-c3ccc(-c4cnc([C@@H]5CCCN5C(=O)[C@@H](NC(=O)OC(C)(C)C)C(C)C)[nH]4)c4c3C3CCC3C4)cc2)[nH]1` (stereo partly shown) [Example 10], the figures for the pEC50 in experiment [1] and in experiment [2] were 8.36 and 9.03, respectively.

For `COC(=O)N[C@H](C(=O)N1CC(C)=C[C@H]1c1ncc(-c2ccc(-c3ccc(-c4cnc([C@@H]5C=C(C)CN5C(=O)[C@@H](NC(=O)OC)C(C)C)[nH]4)c4c3C3CCC3C4)cc2)[nH]1)C(C)C` (stereo partly shown) [Example 21], the figures for the negative logarithm of the EC50 (pEC50) in experiment [1] and in experiment [2] were 10.17 and 10.82, respectively.

The values are drawn from patent US9802949B2, “Fused ring compounds as hepatitis C virus inhibitors, pharmaceutical compositions and uses thereof” (SUNSHINE LAKE PHARMA CO., LTD., priority 2012, dated 2017).
